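How tested: cells in 96-well plates exposed to compound for 48 hours at five concentrations. Abbreviation: GI50, concentration required for 50% inhibition of growth.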 Active and inactive are the calls of the source. Cut-off read from the data, not from the text of the source: active = GI50 up to about 1.1 µM and inactive = higher. A value given as a limit tells only on which side of the number the result lay.

Among the test systems are HCC 2998; BT-549; TK-10; SF-295; IGROV-1; UACC-62; SN12C; MCF7; NCI-H23; NCI-H460; EKVX; RPMI-8226; A498; KM12; SK-MEL-2; RXF 393; MOLT-4; OVCAR-8; SR.
Holding throughout (test): NCI tumour cell line growth inhibition, 48 h

For `COC(=O)[C@@H](OC(C)=O)[C@@H](OC(C)=O)c1nnc2ccc(Cl)nn12`, the GI50 with HCC 2998 is 36.2 µM (inactive); with BT-549, > 100 µM (inactive); in the test on TK-10, > 100 µM (inactive); with SF-295 it was > 100 µM (inactive); with IGROV-1, 85.3 µM (inactive); with UACC-62 it was > 100 µM (inactive). In addition, the GI50 in the test on SN12C was > 100 µM (inactive); with MCF7, > 100 µM (inactive); in the test with NCI-H23, > 100 µM (inactive); with NCI-H460 it was > 100 µM (inactive); in the test on EKVX, > 100 µM (inactive); with RPMI-8226, 62.2 µM (inactive). Also, the GI50 in the test on A498, with KM12, in the test on SK-MEL-2, in the test with RXF 393, in the test on MOLT-4 and with OVCAR-8 was > 100 µM (inactive) in each case.
Consider `COC(=O)C1(O)C(c2ccccc2)=NC2(C)CCCC21` (stereo not drawn), for which the GI50 in the test with HCC 2998, in the test with BT-549, with TK-10, with SF-295, with IGROV-1 and in the test on UACC-62 was > 100 µM (inactive) each time. Moreover, the GI50 in the test with SN12C, in the test with NCI-H23, with SR, in the test with NCI-H460, with RPMI-8226 and in the test with A498 was > 100 µM (inactive) in each case. Besides, the GI50 with KM12, in the test on SK-MEL-2, in the test on RXF 393, in the test with MOLT-4 and in the test on OVCAR-8 was > 100 µM (inactive) in each case.
Consider `COc1ccc2ccccc2c1C1NC(=O)c2ccccc2N1` (stereo not drawn), for which the GI50 is 1.95 µM (inactive) in the test on HCC 2998; > 100 µM (inactive) in the test with BT-549; 5.15 µM (inactive) in the test on TK-10; 0.578 µM (active) with SF-295; 1.72 µM (inactive) in the test on IGROV-1; 0.455 µM (active) in the test on UACC-62. Also, the GI50 was 2.67 µM (inactive) in the test with SN12C; 0.78 µM (active) with MCF7; 4.67 µM (inactive) with NCI-H23; 1.26 µM (inactive) with NCI-H460; 2.51 µM (inactive) in the test with EKVX; 0.659 µM (active) in the test on RPMI-8226. Also, the GI50 in the test with A498 was 1.3 µM (inactive); in the test on KM12, 0.733 µM (active); in the test with SK-MEL-2, 2.08 µM (inactive); in the test on RXF 393, 1.37 µM (inactive); in the test with MOLT-4, 0.826 µM (active); in the test on OVCAR-8 it was 3.03 µM (inactive).
Take `NC(CCC(=O)O)C(=O)NC(Cc1ccc(N(CCCl)CCCl)cc1)C(=O)O` (stereo not drawn): the GI50 in the test on HCC 2998, in the test on BT-549, in the test on TK-10, with SF-295, in the test on IGROV-1 and with UACC-62 was > 100 µM (inactive) each time. Moreover, the GI50 in the test on SN12C, with MCF7, with NCI-H23, in the test on NCI-H460, in the test with EKVX and in the test on RPMI-8226 was > 100 µM (inactive) in each case. Moreover, the GI50 in the test on A498, in the test on KM12, with SK-MEL-2, in the test with RXF 393, in the test with MOLT-4 and with OVCAR-8 was > 100 µM (inactive) each time.
For `O=C1/C(=C/c2cccc(Oc3ccccc3)c2)N=C(c2ccccc2)N1c1nc2ccc(Sc3ccccc3)cc2[nH]1`, the GI50 was 13.3 µM (inactive) in the test on HCC 2998; 14.9 µM (inactive) in the test with BT-549; 25.2 µM (inactive) in the test with TK-10; 19.7 µM (inactive) in the test on SF-295; 46.9 µM (inactive) in the test on IGROV-1; 23.2 µM (inactive) in the test on UACC-62. In addition, the GI50 with SN12C is 20.7 µM (inactive); with MCF7, 27.7 µM (inactive); with NCI-H23, 12.1 µM (inactive); with NCI-H460 it was 23 µM (inactive); in the test on EKVX it was 44.1 µM (inactive); with RPMI-8226, 20.5 µM (inactive). Also, the GI50 in the test on A498 is 26.1 µM (inactive); with KM12, 29.6 µM (inactive); in the test on SK-MEL-2, 17.3 µM (inactive); in the test on RXF 393, 24.8 µM (inactive); with MOLT-4, 33.7 µM (inactive); in the test on OVCAR-8, 29.9 µM (inactive).
As for `O=C(NCCN(CCNC(=O)c1cccc(O)c1O)CCNC(=O)c1cccc(O)c1O)c1cccc(O)c1O` [TRENCAM], the GI50 was 3.4 µM (inactive) with HCC 2998; 23.2 µM (inactive) with BT-549; > 56.1 µM (inactive) in the test with TK-10; 25.4 µM (inactive) in the test on SF-295; 4.73 µM (inactive) in the test with IGROV-1; 4.78 µM (inactive) with UACC-62. The GI50 in the test on SN12C was 8.55 µM (inactive); in the test with MCF7 it was 9.55 µM (inactive); in the test on NCI-H23, 11.5 µM (inactive); in the test with NCI-H460, 4.38 µM (inactive); with EKVX it was 41.4 µM (inactive); in the test on A498, 51.9 µM (inactive). For the same compound, the GI50 was 4.4 µM (inactive) in the test on KM12, 33.2 µM (inactive) in the test on SK-MEL-2, 7.87 µM (inactive) in the test on RXF 393 and 3.15 µM (inactive) in the test with OVCAR-8.
Consider `CCOC(=O)Cc1cc(=O)oc2cc(O)ccc12`, for which the GI50 in the test with BT-549, in the test with TK-10, with SF-295, in the test with IGROV-1, in the test on UACC-62 and in the test with SN12C was > 100 µM (inactive) in each case. For the same compound, the GI50 with NCI-H23, in the test on SR, in the test with NCI-H460, in the test on EKVX, in the test with RPMI-8226 and in the test with A498 was > 100 µM (inactive) each time. The GI50 in the test on KM12, in the test on SK-MEL-2, in the test with RXF 393, in the test with MOLT-4 and in the test with OVCAR-8 was > 100 µM (inactive) each time.
Consider `COC(=O)c1ccccc1CC1Cc2cccc(C)c2C1=O` (stereo not drawn), for which the GI50 was 40.3 µM (inactive) in the test on HCC 2998; 30 µM (inactive) with BT-549; 21.3 µM (inactive) in the test on TK-10; 38.9 µM (inactive) in the test on SF-295; 46.5 µM (inactive) in the test on IGROV-1; 30.5 µM (inactive) in the test with UACC-62. The GI50 with SN12C was 50.5 µM (inactive); in the test with MCF7, 26.6 µM (inactive); in the test with NCI-H23, 57.5 µM (inactive); with NCI-H460, 47.5 µM (inactive); in the test with EKVX it was 11.7 µM (inactive); with KM12, 27 µM (inactive). For the same compound, the GI50 was 21.8 µM (inactive) with SK-MEL-2, 24.7 µM (inactive) with RXF 393, 19.9 µM (inactive) with MOLT-4 and 35 µM (inactive) in the test on OVCAR-8.

The values above are taken from ChEMBL document CHEMBL1201862, “PubChem BioAssay data set” (2004).
